Target: T1, aldose reductase prepared from rat lenses (Rattus norvegicus, UniProt P07943)
T1 construct: aldose reductase prepared from rat lenses; from tissue; host or cells: rat lens
Assay: Aldose reductase inhibitory activity
Assay type: biochemical
Conditions: at 5×10^-7 M; glyceraldehyde substrate, NADPH, absorbance at 340 nm; read-out: Inhibitory rate (%) against aldose reductase
Method: Aldose reductase inhibitory activity of the compound of the present invention was evaluated by using aldose reductase prepared from rat lenses. The test compound was added to the reaction mixture consisting of phosphate buffer, NADPH and aldose reductase. After stability of absorbance was confirmed for a few minutes, glyceraldehyde was added to the reaction mixture and then the decrease in absorbance at 340 nm with the passage of time was measured to assay the inhibitory activity of the test compound against aldose reductase.
The inhibitory rate (%) against aldose reductase in the table is the values at 5×10^-7 M of the each test compound.

In order of rising inhibition at 0.5 µM:
1. O=C(O)CN1C(=O)C(=O)N(CCCCc2ccccc2)C1=O [Compound 57, 3-Carboxymethyl-1-(4-phenylbutyl)parabanic acid]  25%
2. Cc1ccc(CN2C(=O)C(=O)N(CC(=O)O)C2=O)cc1 [Compound 37, 3-Carboxymethyl-1-(4-methylbenzyl)parabanic acid]  30%
3. O=C(O)CN1C(=O)C(=O)N(CCc2ccccc2)C1=O [Compound 49, 3-Carboxymethyl-1-(2-phenylethyl)parabanic acid]  30%
4. O=C(O)CN1C(=O)NC(=O)C1=O [Compound 60, 1-carboxymethylparabanic acid]  31%
5. CCOC(=O)CN1C(=O)C(=O)N(Cc2cccc([N+](=O)[O-])c2)C1=O [Compound 19, Ethyl 1-(3-nitrobenzyl)-2,4,5-trioxoimidazolidine-3-acetate]  31%
6. O=C(O)CN1C(=O)C(=O)N(Cc2cccc(Cl)c2)C1=O [Compound 42, 3-Carboxymethyl-1-(3-chlorobenzyl)parabanic acid]  31%
7. O=C(O)CN1C(=O)C(=O)N(Cc2ccccc2Cl)C1=O [Compound 41, 3-Carboxymethyl-1-(2-chlorobenzyl)parabanic acid]  32%
8. CCCCCCN1C(=O)C(=O)N(CC(=O)O)C1=O [Compound 33, 3-Carboxymethyl-1-hexylparabanic acid]  35%
9. O=C(O)CN1C(=O)C(=O)N(CCc2cccc([N+](=O)[O-])c2)C1=O [Compound 55, 3-Carboxymethyl-1-(2-(3-nitrophenyl)ethyl)parabanic acid]  36%
10. O=C(O)CN1C(=O)C(=O)N(CCc2ccccc2Cl)C1=O [Compound 52, 3-Carboxymethyl-1-(2-(2-chlorophenyl)ethyl)parabanic acid]  37%
11. Cc1ccccc1CN1C(=O)C(=O)N(CC(=O)O)C1=O [Compound 36, 3-Carboxymethyl-1-(2-methylbenzyl)parabanic acid]  41%
12. Cc1ccc(CCN2C(=O)C(=O)N(CC(=O)O)C2=O)cc1 [Compound 50, 3-Carboxymethyl-1-(2-(4-methylphenyl)ethyl)parabanic acid]  42%
13. COc1ccc(CCN2C(=O)C(=O)N(CC(=O)O)C2=O)cc1OC [Compound 51, 3-Carboxymethyl-1-(2-(3,4-dimethoxyphenyl)ethyl)parabanic acid]  42%
14. COc1cccc(CN2C(=O)C(=O)N(CC(=O)O)C2=O)c1 [Compound 39, 3-Carboxymethyl-1-(3-methoxybenzyl)parabanic acid]  44%
15. O=C(O)CN1C(=O)C(=O)N(CCc2ccc(Br)cc2)C1=O [Compound 53, 1-(2-(4-Bromophenyl)ethyl)-3-carboxymethylparabanic acid]  47%
16. CC1CCC(N2C(=O)C(=O)N(CC(=O)O)C2=O)CC1 (stereo not shown) [Compound 34, 3-Carboxymethyl-1-(4-methylcyclohexyl)parabanic acid]  49%
17. O=C(O)CN1C(=O)C(=O)N(Cc2ccc(Cl)cc2)C1=O [Compound 43, 3-Carboxymethyl-1-(4-chlorobenzyl)parabanic acid]  56%
18. O=C(O)CN1C(=O)C(=O)N(CCc2ccc(Cl)c(Cl)c2)C1=O [Compound 54, 3-Carboxymethyl-1-(2-(3,4-dichlorophenyl)ethyl)parabanic acid]  57%
19. O=C(O)CN1C(=O)C(=O)N(Cc2ccc(Cl)cc2Cl)C1=O [Compound 46, 3-Carboxymethyl-1-(2,4-dichlorobenzyl)parabanic acid]  61%
20. O=C(O)CN1C(=O)C(=O)N(Cc2ccc(Br)cc2)C1=O [Compound 44, 1-(4-Bromobenzyl)-3-carboxymethylparabanic acid]  65%
21. O=C(O)CN1C(=O)C(=O)N(Cc2cccc([N+](=O)[O-])c2)C1=O [Compound 48, 3-Carboxymethyl-1-(3-nitrobenzyl)parabanic acid]  75%
22. O=C(O)CN1C(=O)C(=O)N(Cc2ccc(Cl)c(Cl)c2)C1=O [Compound 47, 3-Carboxymethyl-1-(3,4-dichlorobenzyl)parabanic acid]  75%

Test system: not listed separately
Assay: Acute toxicity test (oral, LD50)
Conditions: rat, in vivo, Wistar-strain male rats, groups of 8, death rate of 7 days
Method: The test compounds of the present invention were orally administered to groups of 8 Wistar-strain male rats, and the LD50 values were calculated based on the death rate of 7 days.

`O=C(O)CN1C(=O)C(=O)N(Cc2ccc(Br)cc2)C1=O` [Compound 44, 1-(4-Bromobenzyl)-3-carboxymethylparabanic acid] and `O=C(O)CN1C(=O)C(=O)N(Cc2ccc(Cl)c(Cl)c2)C1=O` [Compound 47, 3-Carboxymethyl-1-(3,4-dichlorobenzyl)parabanic acid] cannot be ordered by LD50 at 168 h: over 5000 mg/kg for the first, over 2000 mg/kg for the second.

For `O=C(O)CN1C(=O)C(=O)N(Cc2cccc([N+](=O)[O-])c2)C1=O` [Compound 48, 3-Carboxymethyl-1-(3-nitrobenzyl)parabanic acid], the LD50 at 168 h was over 5000 mg/kg.

Reference: patent US4985453A, “Parabanic acid derivatives and pharmaceutical compositions thereof” (Nippon Zoki Pharmaceutical Co., Ltd., priority 1988, dated 1991)
